Bounds are passed on as bounds.

These results are taken from US20220162191A1, “SMALL MOLECULE MODULATORS OF IL-17” (LEO PHARMA A/S, priority 2019, published 2022).

The assay deals with T1, human IL-17AA (Homo sapiens, UniProt Q16552).
T1 construct: host or cells: HEK (human embryonic kidney) cells
T1 sequence (Q16552 24-155) 1: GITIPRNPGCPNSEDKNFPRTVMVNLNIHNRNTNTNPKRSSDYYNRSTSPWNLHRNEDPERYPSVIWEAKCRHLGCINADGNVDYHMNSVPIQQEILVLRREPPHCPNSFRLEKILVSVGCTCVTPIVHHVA
T1 sequence (Q16552 24-155) 2: T1 sequence (Q16552 24-155) 1
Briefly: IL-8 release assay in human epithelial keratinocytes adult (HEKa). It is filed as cell-based. The following applies: 3 ng/ml human IL-17AA + 10 ng/ml human TNFalpha, 68-72 h, IL-8 by HTRF, read-out: Rel EC50 L-8 release assay. In outline: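 IL-8 secretion, quantified by HTRF (665/620 nm) as percent of controls, served as the readout after 68–72 h culture of HEKa cells with compound plus IL-17AA (3 ng/ml final) and TNF-alpha (10 ng/ml final). Four-parameter logistic curves gave relative IC50 and Emax.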
(In general: In TR-FRET formats the signal depends on donor and acceptor labels being close together.)
Usually EC50 stands for the midpoint of the concentration-response curve. As to `Cn1cncc1-c1ccc(NC(=O)C(Cc2cc(-c3ccnc(N4CCCC4)c3)ccc2Cl)NC(=O)c2ccnn2C)cc1` (centres unmarked) [Example 146, N-[1-[[2-chloro-5-(2-pyrrolidin-1-yl-4-pyridyl)phenyl]methyl]-2-[4-(3-methylimidazol-4-yl)anilino]-2-oxo-ethyl]-2-methyl-pyrazole-3-carboxamide], the 50% effective concentration (EC50) is 100 to 1000 nM.

For the compound `CC(C)n1cc(-c2ccc(Cl)c(C[C@H](NC(=O)C3(F)CCC3)C(=O)Nc3ccc(-c4cncn4C)cc3)c2)ccc1=O` [Example 147, N-[(1S)-1-[[2-chloro-5-(1-isopropyl-6-oxo-3-pyridyl)phenyl]methyl]-2-[4-(3-methylimidazol-4-yl)anilino]-2-oxo-ethyl]-1-fluoro-cyclobutanecarboxamide], the half-maximal effective concentration (EC50) lay within 100 to 1000 nM.

Turning to `CC(C)n1cc(-c2ccc(Cl)c(C[C@H](NC(=O)C3(F)CCC3)C(=O)Nc3ccc(-c4nncn4C)cc3)c2)ccc1=O` [Example 148, N-[(1S)-1-[[2-chloro-5-(1-isopropyl-6-oxo-3-pyridyl)phenyl]methyl]-2-[4-(4-methyl-1,2,4-triazol-3-yl)anilino]-2-oxo-ethyl]-1-fluoro-cyclobutanecarboxamide], the EC50 was greater than 1000 nM.

With `Cn1cncc1-c1ccc(NC(=O)C(Cc2cc(-c3ccnc(N4CCC4)c3)ccc2Cl)NC(=O)c2ccnn2C)cc1` (centres unmarked) [Example 149, N-[1-[[5-[2-(azetidin-1-yl)-4-pyridyl]-2-chloro-phenyl]methyl]-2-[4-(3-methylimidazol-4-yl)anilino]-2-oxo-ethyl]-2-methyl-pyrazole-3-carboxamide], the EC50 lay within 100 to 1000 nM.

Turning to `CN(c1cc(-c2ccc(Cl)c(CC(NC(=O)c3ccnn3C)C(=O)Nc3ccc(-c4cncn4C)cc3)c2)ccn1)C1CC1` (centres unmarked) [Example 150, N-[1-[[2-chloro-5-[2-[cyclopropyl(methyl)amino]-4-pyridyl]phenyl]methyl]-2-[4-(3-methylimidazol-4-yl)anilino]-2-oxo-ethyl]-2-methyl-pyrazole-3-carboxamide], the EC50 was less than 100 nM.

`Cn1cncc1-c1ccc(NC(=O)C(Cc2cc(-c3ccnc(OCC(F)(F)F)c3)ccc2Cl)NC(=O)c2ccnn2C)cc1` (centres unmarked) [Example 152, N-[1-[[2-chloro-5-[2-(2,2,2-trifluoroethoxy)-4-pyridyl]phenyl]methyl]-2-[4-(3-methylimidazol-4-yl)anilino]-2-oxo-ethyl]-2-methyl-pyrazole-3-carboxamide]: the half-maximal effective concentration (EC50) was 100 to 1000 nM.

`CN(CC1CC1)c1cc(-c2ccc(Cl)c(CC(NC(=O)c3ccnn3C)C(=O)Nc3ccc(-c4cncn4C)cc3)c2)ccn1` (centres unmarked) [Example 153, N-[1-[[2-chloro-5-[2-[cyclopropylmethyl(methyl)amino]-4-pyridyl]phenyl]methyl]-2-[4-(3-methylimidazol-4-yl)anilino]-2-oxo-ethyl]-2-methyl-pyrazole-3-carboxamide]: the EC50 was less than 100 nM.

For the compound `CC(C)n1cc(-c2ccc(Cl)c(C[C@H](NC(=O)C3CC3(C)C)C(=O)Nc3ccc(-c4nncn4C)cc3)c2)ccc1=O` (stereo partly drawn) [Example 154, N-[(1S)-1-[[2-chloro-5-(1-isopropyl-6-oxo-3-pyridyl)phenyl]methyl]-2-[4-(4-methyl-1,2,4-triazol-3-yl)anilino]-2-oxo-ethyl]-2,2-dimethyl-cyclopropanecarboxamide], the EC50 is greater than 1000 nM.

As for `COCOc1ccc(-c2ccc(Cl)c(CC(NC(=O)c3ccnn3C)C(=O)Nc3ccc(-c4nncn4C)cc3)c2)cc1C(=O)N(C)C` (centres unmarked) [Example 155, N-[1-[[2-chloro-5-[3-(dimethylcarbamoyl)-4-(methoxymethoxy)phenyl]phenyl]methyl]-2-[4-(4-methyl-1,2,4-triazol-3-yl)anilino]-2-oxo-ethyl]-2-methyl-pyrazole-3-carboxamide], the EC50 is greater than 1000 nM.

Consider `COCOc1ccc(-c2ccc(Cl)c(CC(NC(=O)c3ccnn3C)C(=O)Nc3ccc(-c4nncn4C)cc3)c2)cc1C(=O)N1CCC1` (centres unmarked) [Example 156, N-[1-[[5-[3-(azetidine-1-carbonyl)-4-(methoxymethoxy)phenyl]-2-chloro-phenyl]methyl]-2-[4-(4-methyl-1,2,4-triazol-3-yl)anilino]-2-oxo-ethyl]-2-methyl-pyrazole-3-carboxamide], for which the 50% effective concentration (EC50) was greater than 1000 nM.

Take `Cn1cnnc1-c1ccc(NC(=O)C(Cc2cc(-c3ccc(O)c(CN4CCNCC4)c3)ccc2Cl)NC(=O)c2ccnn2C)cc1` (centres unmarked) [Example 157, N-[1-[[2-chloro-5-[4-hydroxy-3-(piperazin-1-ylmethyl)phenyl]phenyl]methyl]-2-[4-(4-methyl-1,2,4-triazol-3-yl)anilino]-2-oxo-ethyl]-2-methyl-pyrazole-3-carboxamide]: the 50% effective concentration (EC50) lay within 100 to 1000 nM.

On to `Cn1cncc1-c1ccc(NC(=O)C(Cc2cc(-c3ccnc(OC4CCC4)c3)ccc2Cl)NC(=O)c2ccnn2C)cc1` (centres unmarked) [Example 158, N-[1-[[2-chloro-5-[2-(cyclobutoxy)-4-pyridyl]phenyl]methyl]-2-[4-(3-methylimidazol-4-yl)anilino]-2-oxo-ethyl]-2-methyl-pyrazole-3-carboxamide], for which the EC50 was 100 to 1000 nM.

As for `CC(C)N(C)c1cc(-c2ccc(Cl)c(CC(NC(=O)c3ccnn3C)C(=O)Nc3ccc(-c4cncn4C)cc3)c2)ccn1` (centres unmarked) [Example 159, N-[1-[[2-chloro-5-[2-[isopropyl(methyl)amino]-4-pyridyl]phenyl]methyl]-2-[4-(3-methylimidazol-4-yl)anilino]-2-oxo-ethyl]-2-methyl-pyrazole-3-carboxamide], the 50% effective concentration (EC50) was less than 100 nM.

Consider `Cn1cncc1-c1ccc(NC(=O)C(Cc2cc(-c3ccnc(N4CCCCC4)c3)ccc2Cl)NC(=O)c2ccnn2C)cc1` (centres unmarked) [Example 160, N-[1-[[2-chloro-5-[2-(1-piperidyl)-4-pyridyl]phenyl]methyl]-2-[4-(3-methylimidazol-4-yl)anilino]-2-oxo-ethyl]-2-methyl-pyrazole-3-carboxamide], for which the EC50 lay within 100 to 1000 nM.

Consider `Cn1cncc1-c1ccc(NC(=O)C(Cc2cc(-c3ccnc(OC(F)F)c3)ccc2Cl)NC(=O)c2ccnn2C)cc1` (centres unmarked) [Example 161, N-[1-[[2-chloro-5-[2-(difluoromethoxy)-4-pyridyl]phenyl]methyl]-2-[4-(3-methylimidazol-4-yl)anilino]-2-oxo-ethyl]-2-methyl-pyrazole-3-carboxamide], for which the EC50 lay in the range of 100 to 1000 nM.

Regarding `CN(C)c1cc(-c2ccc(Cl)c(CC(NC(=O)c3ccnn3C)C(=O)Nc3ccc(-c4cncn4C)cc3)c2)ccn1` (centres unmarked) [Example 162, N-[1-[[2-chloro-5-[2-(dimethylamino)-4-pyridyl]phenyl]methyl]-2-[4-(3-methylimidazol-4-yl)anilino]-2-oxo-ethyl]-2-methyl-pyrazole-3-carboxamide], the concentration giving a half-maximal response (EC50) lay in the range of 100 to 1000 nM.

In the case of `CC(C)n1cc(-c2ccc(Cl)c(CC(NC(=O)c3ccnn3C)C(=O)Nc3ccc(-c4nncn4C)cc3)c2)cc(C(F)(F)F)c1=O` (centres unmarked) [Example 163, N-[1-[[2-chloro-5-[1-isopropyl-6-oxo-5-(trifluoromethyl)-3-pyridyl]phenyl]methyl]-2-[4-(4-methyl-1,2,4-triazol-3-yl)anilino]-2-oxo-ethyl]-2-methyl-pyrazole-3-carboxamide], the EC50 is greater than 1000 nM.

As for `Cn1cnnc1-c1ccc(NC(=O)C(Cc2cc(-c3cccc(C(C)(C)CO)c3)ccc2Cl)NC(=O)c2ccnn2C)cc1` (centres unmarked) [Example 164, N-[1-[[2-chloro-5-[3-(2-hydroxy-1,1-dimethyl-ethyl)phenyl]phenyl]methyl]-2-[4-(4-methyl-1,2,4-triazol-3-yl)anilino]-2-oxo-ethyl]-2-methyl-pyrazole-3-carboxamide], the EC50 lay within 100 to 1000 nM.

Turning to `Cn1cncc1-c1ccc(NC(=O)C(Cc2cc(-c3ccnc(N4CCOCC4)c3)ccc2Cl)NC(=O)c2ccnn2C)cc1` (centres unmarked) [Example 165, N-[1-[[2-chloro-5-(2-morpholino-4-pyridyl)phenyl]methyl]-2-[4-(3-methylimidazol-4-yl)anilino]-2-oxo-ethyl]-2-methyl-pyrazole-3-carboxamide], the EC50 was 100 to 1000 nM.

`Cn1cncc1-c1ccc(NC(=O)C(Cc2cc(-c3ccnc(OCC4CC4)c3)ccc2Cl)NC(=O)c2ccnn2C)cc1` (centres unmarked) [Example 166, N-[1-[[2-chloro-5-[2-(cyclopropylmethoxy)-4-pyridyl]phenyl]methyl]-2-[4-(3-methylimidazol-4-yl)anilino]-2-oxo-ethyl]-2-methyl-pyrazole-3-carboxamide]: the concentration giving a half-maximal response (EC50) is 100 to 1000 nM.

As for `CN(C)C(=O)c1cc(-c2ccc(Cl)c(CC(NC(=O)c3ccnn3C)C(=O)Nc3ccc(-c4nncn4C)cc3)c2)ccc1O` (centres unmarked) [Example 167, N-[1-[[2-chloro-5-[3-(dimethylcarbamoyl)-4-hydroxy-phenyl]phenyl]methyl]-2-[4-(4-methyl-1,2,4-triazol-3-yl)anilino]-2-oxo-ethyl]-2-methyl-pyrazole-3-carboxamide], the EC50 was greater than 1000 nM.

Turning to `Cn1cnnc1-c1ccc(NC(=O)C(Cc2cc(-c3ccc(O)c(CN4CCC4)c3)ccc2Cl)NC(=O)c2ccnn2C)cc1` (centres unmarked) [Example 168, N-[1-[[5-[3-(azetidin-1-ylmethyl)-4-hydroxy-phenyl]-2-chloro-phenyl]methyl]-2-[4-(4-methyl-1,2,4-triazol-3-yl)anilino]-2-oxo-ethyl]-2-methyl-pyrazole-3-carboxamide], the EC50 lay within 100 to 1000 nM.

On to `Cn1cnnc1-c1ccc(NC(=O)C(Cc2cc(-c3cccc(CC4CC4)c3)ccc2Cl)NC(=O)c2ccnn2C)cc1` (centres unmarked) [Example 169, N-[1-[[2-chloro-5-[3-(cyclopropylmethyl)phenyl]phenyl]methyl]-2-[4-(4-methyl-1,2,4-triazol-3-yl)anilino]-2-oxo-ethyl]-2-methyl-pyrazole-3-carboxamide], for which the half-maximal effective concentration (EC50) was 100 to 1000 nM.
